In brackets after ≈: the same amount, converted by molar mass. Entries after “also recorded” stand apart in the source; their conditions may differ.
Experiments:
[1] = test system: TLR4, TLR7, MyD88 and NF-κB p65 protein expression; design: species or system ICR mice; details: mouse, in vivo
[2] = test system: IL-6, IFN-β and TNF-α levels; format: cell-based, canine
[3] = test system: TLRs signaling pathway mRNA; format: cell-based, canine
influenza A virus [4] = experiment: Antiviral activity assay in vitro with four ways of drug delivery (MTT, MDCK cells); format: cell-based, influenza virus A/PR8/34 (H1N1); details: for EC50: Influenza A virus, MDCK; for antiviral effective rate (ER): final concentration 3.91 μg/ml
[5] = test system: influenza A virus (A PR/8/34); experiment: HE assay of lung tissue of infected mice; format: in vivo, ICR mice; details: days 3 and 7 post-infection, 40, 20, 10 mg/kg
Protocol: (§1) A total of 108 ICR mice were randomly divided into the control uninfected group, the control infected group, oseltamivir group, LEP-treated groups and DPEP-treated groups; 12 mice were designed in each group. Except for the mice in the control uninfected group, others were anaesthetized with ethyl ether and intranasally infected with 10LD50 influenza A virus (A PR/8/34) in a volume of 50 μl PBS to induce viral pneumonia. […] Meanwhile, the control uninfected group and the control infected group were only given saline with the same volume. […] The adult daily dose was converted into the high dose of mice, which was about 40 mg/kg. Based on the high dose of the drug, the medium and low doses were set.
In the 3rd and 7th days after infection, the right lung lobes from each mouse were washed with normal saline and immediately soaked in 10% normal buffered formalin for one week. Then the samples were dehydrated with ethanol and embedded in paraffin. The 4-μm-thick lung sections were stained with HE and the pathological changes of lung tissue were observed under the light microscope.

influenza A virus [6] = experiment: microbe, parasite or virus in culture; details: MDCK, 48 h, read-out: Cell survival rate
influenza A virus [7] = experiment: Viral load assay using real-time RT-PCR (M1 gene) and CPE in infected MDCK cells; format: cell-based, influenza virus A/PR8/34 (H1N1); details: 24 and 48 h after administration; for viral load in MDCK cells vs control infected group: each dose group, P < 0.01 or P < 0.05
influenza A virus [8] = details: dog
[9] = test system: IL-1β, IL-6 and IL-10 in serum; format: in vivo, ICR mice; details: 3rd and 7th day after infection; for IL-10 in serum: P < 0.01; for IL-1β in serum: P < 0.01 or P < 0.05; for IL-6 in serum: P > 0.05
Protocol: as §1
In days 3 and 7 post-infection, blood samples of six mice from each group were collected from retroorbital sinus under mild ethyl ether anesthesia before they were sacrificed, then under 4 °C they were centrifuged at 3000 rpm for 20 min to obtain serum. The levels of IL-1β, IL-6 and IL-10 in murine serum were determined by ELISA kits.

[10] = test system: TNF-α, IFN-γ, TLR3, TLR4, TLR7, MyD88, NF-κB p65 and RIG-1 mRNA; design: species or system ICR mice; details: mouse, in vivo
[11] = test system: influenza A virus (A PR/8/34); experiment: RT-PCR analysis of viral load in murine lung tissue; format: in vivo, ICR mice
Protocol: as §1
In the 3rd and 7th days after infection, the left lung lobes from each mouse were washed with normal saline and stored at -80°C for RT-PCR and western blot analysis use. For RT-PCR analysis, the left lung was homogenized in precooled normal saline and centrifuged at 4000 rpm for 10 min at 4 °C. Total RNA was extracted using the High Pure Viral Nucleic Acid kit and cDNA was synthesized with the PrimeScript™ RT Master Mix kit. The specific steps of RT-PCR amplification were the same as the previous section in the present study. The related primers for mouse were designed by Sangon Biotech, Co., Ltd. (Shanghai, China) and are described in Table S2 .

[12] = drug delivery way: Blocking viruses invading host cells
[13] = drug delivery way: Directly inhibiting virus
[14] = drug delivery way: Inhibiting the biosynthesis of virus
[15] = drug delivery way: Intervening the adsorption of virus
[16] = 3rd day after infection, three doses, P < 0.01 or P < 0.05
[17] = 7th day after infection, 40 and 20 mg/kg groups, P < 0.05

Structure (SMILES)	inhibition effect on protein expression of TLR4 and TLR7 in lung tissue [1]	protein expression levels of MyD88 and NF-κB p65 in lung tissue [1]	protein expression levels of TLR4 and TLR7 in lung tissue [1]	protein expression of TLR4, TLR7 and NF-κB p65 in comparison to oseltamivir [1]	IL-6 level in cell supernatant vs control infected group [2]	level of IFN-β in cell supernatant vs control infected group [2]	secretion of TNF-α vs control infected group [2]	mRNA expression levels of TLR7, NF-κB p65, TLR3 and IRF3 [3]	mRNA expression of IFN-β [3]	EC50 (influenza A virus [4]; [12])	EC50 (influenza A virus [4]; [13])	EC50 (influenza A virus [4]; [14])	EC50 (influenza A virus [4]; [15])	antiviral effective rate (ER) (influenza A virus [4])	histopathological responses of lung tissue [5]	viability at 0.49 µg/mL (influenza A virus [6])	viability at 0.98 µg/mL (influenza A virus [6])	viability at 1.95 µg/mL (influenza A virus [6])	viability at 3.91 µg/mL (influenza A virus [6])	viability at 7.81 µg/mL (influenza A virus [6])	also measured
CN[C@@H](C)[C@H](O)c1ccccc1 [LEP, L-ephedrine]	not obvious	significantly down-regulated	Decreased	dramatically inhibit	significantly higher than that in the control infected group	significantly increase; also recorded: increased	significantly inhibited the secretion of TNF-α	significantly reduced	significantly increased	11 µg/mL (≈ 66.3 µM)	6.28 µg/mL (≈ 38 µM)	5.66 µg/mL (≈ 34.3 µM)	7.15 µg/mL (≈ 43.3 µM)	> 36.00%	attenuated the inflammation	42.6%	51.6%	57.8%	61.5%	67.2%	mRNA expression levels of TLR4 and TRAF3 [3]: inhibited; mRNA expression of MyD88 and TRAF6 [3]: marked decreased; mRNA expression of TLR4 and MyD88 [3]: significantly inhibited; mRNA expression of TRAF6 and TRAF3 [3]: decreased; CPE of infected MDCK cells (influenza A virus [7]): significantly reduce the CPE; viral load in MDCK cells vs control infected group (influenza A virus [7]): significantly decreased; cell viability rate (influenza A virus [8]): ≥ 70%; IL-10 in serum [9]: accelerated the production of IL-10; IL-1β in serum [9]: dramatically inhibited the production of IL-1β; IL-6 in serum [9]: slightly increased; mRNA expression levels of TLR3, TLR4, TLR7, MyD88, NF-κB p65 and RIG-1 in lung tissue [10]: obviously inhibited; mRNA expression of IFN-γ in lung tissue [10]: significantly promoted; mRNA expression of TNF-α in lung tissue [10]: markedly inhibited; viral load in lung tissue vs control infected group [11, 16]: significantly decreased; viral load in lung tissue vs control infected group [11, 17]: significantly reduced
CN[C@@H](C)[C@@H](O)c1ccccc1 [DPEP, D-pseudoephedrine]	not obvious	significantly down-regulated	Decreased	dramatically inhibit	significantly higher than that in the control infected group	significantly increase; also recorded: increased	significantly inhibited the secretion of TNF-α	significantly reduced	significantly increased	8.17 µg/mL (≈ 49.4 µM)	6.04 µg/mL (≈ 36.6 µM)	4.67 µg/mL (≈ 28.3 µM)	7.57 µg/mL (≈ 45.8 µM)	more than 38.00%	attenuated the inflammation	45.3%	54.7%	61.2%	63.9%	72.5%	IFN-β mRNA expression compared with the oseltamivir group [3]: significantly increased; mRNA expression levels of MyD88, TRAF6 and TRAF3 [3]: obvious decreased; mRNA expression levels of NF-κB p65, TRAF3 and IRF3 compared with the oseltamivir group [3]: significantly reduced; mRNA expression levels of TRAF6 and TLR4 [3]: reduced; mRNA expression of MyD88 and TRAF3 [3]: significant decreased; mRNA expression of TLR4 [3]: significant decreased; CPE of infected MDCK cells (influenza A virus [7]): significantly reduce the CPE; viral load in MDCK cells vs control infected group (influenza A virus [7]): significantly decreased; cell viability rate (influenza A virus [8]): ≥ 70%; IL-10 in serum [9]: accelerated the production of IL-10; IL-1β in serum [9]: dramatically inhibited the production of IL-1β; IL-6 in serum [9]: slightly increased; mRNA expression levels of TLR3, TLR4, TLR7, MyD88, NF-κB p65 and RIG-1 in lung tissue [10]: obviously inhibited; mRNA expression of IFN-γ in lung tissue [10]: significantly promoted; mRNA expression of TNF-α in lung tissue [10]: markedly inhibited; viral load in lung tissue vs control infected group [11, 16]: significantly decreased; viral load in lung tissue vs control infected group [11, 17]: significantly reduced

Source: article PMC6747051, “Screening of Antiviral Components of Ma Huang Tang and Investigation on the Ephedra Alkaloids Efficacy on Influenza Virus Type A” (Frontiers in Pharmacology, 2019)
